Read-outs that look alike come from different tables or passages of the source.
Key:
Test in all cases: 72-hour CellTiter-Glo 2.0 growth inhibition screen (single agent, 9x9 combination dose matrix)
Type in all cases: cell-based
SW48 KRAS (G12D/+) = conditions: for EC50: SW48, 72 h, read-out: EC50
Experimental: (§1) Growth inhibition was determined using a 72-hour CellTiter-Glo®2.0 proliferation assay. Combination format was a 9×9 dose matrix. Six of the 20 cell lines received the original two combinations whilst the remaining 14 cell lines received two additional combinations resulting in four combinations in total. Results have been supplied as both Chalice Analyzer files (.mcc) and raw luminescence data.
(§2) Cell lines that have been preserved in liquid nitrogen are thawed and expanded in growth media (see Appendix I). Once cells have reached expected doubling times, screening begins. Cells are seeded in 25 μl of growth media in black 384-well tissue culture treated plates at 500 cells per well (as noted in Analyzer). Cells are equilibrated in assay plates via centrifugation and placed at 37° C. 5% CO2 for twenty-four hours before treatment. […] Compounds are transferred to assay plates using and Echo acoustic liquid handling system. […] of each compound was added at the appropriate concentration for all combination dose points. Therefore, final assay volume would be 25.05 μl. Assay plates are incubated with compound for 3 days and are then analyzed using CellTiter-Glo 2.0. All data points are collected via automated processes and are subject to quality control and analyzed.
(§3) If T≥V_0:100*(1−(T−V_0)/(V−V_0)) • where T is the signal measure for a test article, V is the untreated/vehicle-treated control measure, and Vo is the untreated/vehicle control measure at time zero (also colloquially referred as TO plates). This formula is derived from the Growth Inhibition calculation used in the National Cancer Institute's NCI-60 high throughput screen. For the purposes of this disclosure, all data analysis was performed in Growth Inhibition (except where noted).
(§4) Inhibition is also provided as a measure of cell viability. […] Inhibition of 100% represents no doubling of cell numbers during the treatment window. Both cytostatic and cytotoxic treatments can yield an Inhibition percentage of 100%. Inhibition percentage is calculated as the following: […]
(§5) The fractional inhibition for each component agent and combination point in the matrix is calculated relative to the median of all untreated/vehicle-treated control wells. The Synergy Score equation integrates the experimentally-observed activity volume at each point in the matrix in excess of a model surface numerically derived from the activity of the component agents using the Loewe model for additivity. Additional terms in the Synergy Score equation (above) are used to normalize for various dilution factors used for individual agents and to allow for comparison of synergy scores across an entire experiment. The inclusion of positive inhibition gating or an Idata multiplier removes noise near the zero-effect level, and biases results for synergistic interactions at that occur at high activity levels. Combinations with higher maximum Growth Inhibition (GI) effects or those which are synergistic at low concentrations will have higher Synergy Scores.
(§6) The CI is a rough estimate of how much drug was needed in combination relative to the single agent doses required to achieve the chosen effect level. CI values in the range of 0.5-0.7 are typical for in vitro measurements of current clinical combinations. The CI error (σCI) is calculated using standard error propagation through the CI calculation based on the isobologram errors. In the Chalice Analyzer, the Best CI is reported from the many CI values calculated for each Icut crossing combination. Among all the measured CI values, the one with the largest single-to-noise level (1−CI)/σCI is reported as the Best CI. Best CI Level is the effect level from which the CI is calculated.

Panc 04.03 = conditions: for EC50 / Response Area: Panc 04.03, Pancreas
Experimental: as §1, §2, §3, §4, §5, §6

SW48 = conditions: for EC50: SW48, 72 h
Experimental: as §1, §2, §3, §4, §5, §6

HCC1171 = tested on: HCC1171
Experimental: as §1, §2, §3, §4, §5, §6

KYSE-410 = conditions: for EC50: KYSE-410, 72 h
Experimental: as §1, §2, §3, §4, §5, §6

[1] = Homo sapiens, SW48 KRAS (G12D/+), Colorectal, Additional Single Agent Responses (inhibition, % I), 72 h
[2] = Homo sapiens, SW48 KRAS (G12D/+), Colorectal, growth inhibition (GI) curve, single agent, 72 h
[3] = SW48 KRAS (G12D/+), enhancer + MEI-522 (Voruciclib), 72 h
[4] = enhancer combined with MEI-522 (Voruciclib), SW48 KRAS (G12D/+) (Colorectal), 72 hours, inhibition data
[5] = Panc 04.03 (KRAS G12D), enhancer + MEI-522 (Voruciclib), 72 h
[6] = enhancer combined with MEI-522 (Voruciclib), Panc 04.03 (Pancreas), 72 hours, inhibition data
[7] = Homo sapiens, SW48, Colorectal, Additional Single Agent Responses (inhibition, % I), 72 h
[8] = Homo sapiens, SW48, Colorectal, growth inhibition (GI) curve, single agent, 72 h
[9] = SW48 (KRAS WT), enhancer + MEI-522 (Voruciclib), 72 h
[10] = enhancer combined with MEI-522 (Voruciclib), SW48 (Colorectal), 72 hours, inhibition data
[11] = HCC1171 (KRAS G12C), enhancer + MEI-522 (Voruciclib), 72 h
[12] = HCC1171, Lung, Additional Single Agent Responses (inhibition, % I), 72 h
[13] = enhancer combined with MEI-522 (Voruciclib), HCC1171 (Lung), 72 hours, inhibition data
[14] = Homo sapiens, KYSE-410, Esophageal, Additional Single Agent Responses (inhibition, % I), 72 h
[15] = Homo sapiens, KYSE-410, Esophageal, growth inhibition (GI) curve, single agent, 72 h
[16] = KYSE-410 (KRAS G12C), enhancer + MEI-522 (Voruciclib), 72 h
[17] = enhancer combined with MEI-522 (Voruciclib), KYSE-410 (Esophageal), 72 hours, inhibition data

## CC[C@@H]1C(=O)N(C)c2cnc(Nc3ccc(C(=O)N[C@H]4CC[C@H](N5CCN(CC6CC6)CC5)CC4)cc3OC)nc2N1C(C)C [Volasertib]
SW48 KRAS (G12D/+); [1]
  EC50: 4.1 nM
  IC50: 4.8 nM
SW48 KRAS (G12D/+); [2]
  EC50: 4.2 nM
  GI50: 4.3 nM
SW48 KRAS (G12D/+); Homo sapiens, SW48 KRAS (G12D/+), Colorectal, Additional Single Agent Responses, 72 h, read-out: Max Response (% I)
  Emax: 86%
SW48 KRAS (G12D/+); Homo sapiens, SW48 KRAS (G12D/+), Colorectal, growth inhibition (GI), single agent, 72 h, read-out: Max Response (% GI)
  Emax: 148%
SW48 KRAS (G12D/+); SW48 KRAS (G12D/+), Colorectal, Additional Single Agent Responses (inhibition, % I), 72 h
  Response Area: 3.32
SW48 KRAS (G12D/+); SW48 KRAS (G12D/+), Colorectal, growth inhibition (GI), AUC, single agent, 72 h
  Response Area: 5.01
SW48 KRAS (G12D/+); [3]
  Best CI: 0.06
  Bliss Volume: 8.36
  HSA volume: 1.07
  Loewe Volume: 3.66
  Synergy Score: 13.34
SW48 KRAS (G12D/+); [4]
  Best CI: 0.08
  Bliss Volume: 0.41
  HSA volume: 0.61
  Loewe Volume: 2.08
  Synergy Score: 4.06
SW48 KRAS (G12D/+); enhancer combined with MEI-522 (Voruciclib), SW48 KRAS (G12D/+) (Colorectal), 72 hours, inhibition data, unit assumed
  Best CI Level: 80%
Panc 04.03; Homo sapiens, Panc 04.03, 72 h
  GI50: 4.6 nM
  IC50: 5.9 nM
Panc 04.03; Homo sapiens, Panc 04.03, 72 h, Additional Single Agent Responses (inhibition, % I), 72 h
  EC50: 4.2 nM
Panc 04.03; Homo sapiens, Panc 04.03, 72 h, growth inhibition (GI) curve, single agent, 72 h
  EC50: 4.2 nM
Panc 04.03; Homo sapiens, Panc 04.03, 72 h, read-out: Max Response (% GI)
  Emax: 87%
Panc 04.03; Homo sapiens, Panc 04.03, 72 h, read-out: Max Response (% I)
  Emax: 64%
Panc 04.03; [5]
  Best CI: 0.74
  Bliss Volume: 4.14
  HSA volume: 2.74
  Loewe Volume: 1.36
  Synergy Score: 7.71
Panc 04.03; Additional Single Agent Responses (inhibition, % I), 72 h
  Response Area: 2.78
Panc 04.03; growth inhibition (GI), AUC, single agent, 72 h
  Response Area: 3.75
Panc 04.03; [6]
  Best CI: 0.67
  Best CI Level: 80
  Bliss Volume: −0.87
  HSA volume: 1.03
  Loewe Volume: 0.18
  Synergy Score: 2.30
SW48; [7]
  EC50: 4.7 nM
  IC50: 4.9 nM
SW48; [8]
  EC50: 4.9 nM
  GI50: 4.6 nM
SW48; Homo sapiens, SW48, Colorectal, Additional Single Agent Responses, 72 h, read-out: Max Response (% I)
  Emax: 95%
SW48; Homo sapiens, SW48, Colorectal, growth inhibition (GI), single agent, 72 h, read-out: Max Response (% GI)
  Emax: 174%
SW48; [9]
  Best CI: 0.11
  Bliss Volume: 8.81
  HSA volume: −0.59
  Loewe Volume: 1.23
  Synergy Score: 11.75
SW48; SW48, Colorectal, Additional Single Agent Responses (inhibition, % I), 72 h
  Response Area: 4.47
SW48; SW48, Colorectal, growth inhibition (GI), AUC, single agent, 72 h
  Response Area: 6.76
SW48; [10]
  Best CI: 0.60
  Bliss Volume: 0.08
  HSA volume: 0.40
  Loewe Volume: 0.43
  Synergy Score: 1.83
SW48; enhancer combined with MEI-522 (Voruciclib), SW48 (Colorectal), 72 hours, inhibition data, unit assumed
  Best CI Level: 20%
HCC1171; [11]
  Best CI: 0.95
  Bliss Volume: −2.15
  HSA volume: −1.49
  Loewe Volume: −1.27
  Synergy Score: 2.07
HCC1171; [12]
  EC50: 4.7 nM
  Response Area: 1.99
HCC1171; HCC1171, Lung, Additional Single Agent Responses, 72 h, read-out: Max Response (% I)
  Emax: 45%
HCC1171; HCC1171, Lung, growth inhibition (GI) curve, single agent, 72 h
  GI50: 5.3 nM
HCC1171; HCC1171, Lung, growth inhibition (GI), AUC, single agent, 72 h
  Response Area: 3.40
HCC1171; HCC1171, Lung, growth inhibition (GI), single agent, 72 h, read-out: Max Response (% GI)
  Emax: 79%
HCC1171; [13]
  Best CI: 0.79
  Bliss Volume: −3.18
  HSA volume: −0.81
  Loewe Volume: −0.71
  Synergy Score: 0.73
HCC1171; enhancer combined with MEI-522 (Voruciclib), HCC1171 (Lung), 72 hours, inhibition data, unit assumed
  Best CI Level: 50%
KYSE-410; [14]
  EC50: 8.6 nM
  IC50: 13.1 nM
KYSE-410; [15]
  EC50: 8.5 nM
  GI50: 10.1 nM
KYSE-410; Homo sapiens, KYSE-410, Esophageal, Additional Single Agent Responses, 72 h, read-out: Max Response (% I)
  Emax: 74%
KYSE-410; Homo sapiens, KYSE-410, Esophageal, growth inhibition (GI), single agent, 72 h, read-out: Max Response (% GI)
  Emax: 89%
KYSE-410; [16]
  Best CI: 1.85
  Bliss Volume: −3.04
  HSA volume: −2.10
  Loewe Volume: −3.58
  Synergy Score: 0.91
KYSE-410; KYSE-410, Esophageal, Additional Single Agent Responses (inhibition, % I), 72 h
  Response Area: 3.52
KYSE-410; KYSE-410, Esophageal, growth inhibition (GI), AUC, single agent, 72 h
  Response Area: 4.24
KYSE-410; [17]
  Best CI: 0.40
  Bliss Volume: −3.11
  HSA volume: −1.71
  Loewe Volume: −2.95
  Synergy Score: 0.62
KYSE-410; enhancer combined with MEI-522 (Voruciclib), KYSE-410 (Esophageal), 72 hours, inhibition data, unit assumed
  Best CI Level: 70%

— US20240016781A1, “TREATMENT OF KRAS MUTANT CANCERS” (MEI Pharma, Inc., priority 2020, published 2024)
